Laboratory results taken from patent US20210183467A1, “SYSTEM AND METHOD FOR USING MICROBIOME TO DE-RISK DRUG DEVELOPMENT” (YALE UNIVERSITY, priority 2018, published 2021).

Experiments:
[1] = Liver S9 enzyme assay of conversion to BVU; type: in vitro ADME
Description: Human and murine S9 liver fractions are purchased from Thermo Fisher Scientific (HMS9L and MSMCPL, respectively). Enzyme assays are performed for the deglycosylation of arabinosyluracil derivatives. In brief, assays are performed at 37° C. Reaction volumes are 150 μL with liver S9 fractions at 5 μg/μL and BRV or SRV at 100 μM in 10 mM phosphate buffer (pH 7.4). Reactions are initiated by addition of drugs to pre-warmed reaction mixture. 10 μL samples are collected and quenched in 10 μL acetonitrile on ice at 0, 5, 10, 15, 20, 30, 45, 60, 90, 120, 180, 270, and 360 min after initiation. Substrates and reaction product are extracted and quantified by LC-MS as described below.

[2] = test system: Bacteroides thetaiotaomicron; test: BRV conversion assay with gut isolates; type: in vitro ADME; conditions: among ten bacterial species
Description: Frozen stocks of bacteria (Table 4) are plated on BHI blood agar and incubated at 37° C. under anaerobic conditions. Single colonies are inoculated into 4 mL pre-reduced GMM and incubated anaerobically at 37° C. for 24 h (Akkermansia muciniphila for 48 hours). BRV conversion assays are performed with the resulting dense cultures, as described above for bacterial communities.

[3] = Oral BRV in conventional (CV) and germfree (GF) mice, drug and metabolite levels; type: in vivo, C57BL/6 mice
Description: Oral BRV was administered to conventional (CV) and germfree (GF) C57BL/6 mice, and BRV and BVU concentrations were measured over time along the length of the gastrointestinal tract as shown in FIG. 4C. Serum kinetics of BRV and BVU in conventional (CV) and germ-free (GF) mice were compared following oral BRV administration.
All experiments using mice are performed using protocols approved by the Yale University Institutional Animal Care and Use Committee. Germfree (GF) 8 to 12 week old C57BL/6J mice are maintained in flexible plastic gnotobiotic isolators with a 12-hour light/dark cycle and GF status monitored by PCR and culture-based methods. Conventional C57BL/6J mice (Jackson Laboratories) are purchased at the age of 6-7 weeks and kept in the lab for 2-3 weeks before experiments. All mice are provided a standard, autoclaved mouse chow (5013 LabDiet, Purina) ad libitum.
Each drug treatment is performed using 20 treated and 5 to 6 untreated animals. Both genders are equally represented in each group and evenly distributed across the different time points for sample collection. Animals (n=5 per time point and group) are given 100 mg/kg body weight of BRV or SRV as suspensions in PBS (200 μL PBS for controls) by oral gavage. One blood sample is collected from each animal at an early time point (0.5, 1, 1.5, or 2 hours after drug administration) by submandibular bleeding. At 3, 5, 7, and 9 h, mice are sacrificed and tissue samples are collected into sample tubes and snap-frozen. Fecal samples are collected before euthanization and re-suspended in PBS (1 mL) through vigorous shaking. 20 μL are then plated on BHI blood plates and incubated aerobically and anaerobically at 37° C. to check GF, GN^WT, and GN^MUT animals for contamination. Monocolonized mice are also checked for contamination by PCR using primers 7 and 8.
200 μL of 0.1 mm zirconia/silica beads (BioSpec Products) and 500 μL of organic solvent (acetonitrile:methanol, 1:1) supplemented with internal standard are added to 50-350 mg of pre-weighed solid material. Material is homogenized by mechanical disruption with a bead beater (BioSpec Products) set for 2 minutes on high setting at room temperature. After incubation for at least 1 h at −20° C., samples are centrifuged (3220 rcf, −9° C.) for 15 min. 10 μL of supernatant are diluted with 10 μL H2O for analysis by LC-MS.
Samples for LS-MS analysis are prepared as described above. Chromatographic separation is performed on a C18 Kinetex Evo column (Phenomenex, 100 mm×2.1 mm, […]) using mobile phase A: H2O, 0.1% formic acid and B: methanol, 0.1% formic acid at 45° C. 5 μL of sample are injected at 100% A and 0.4 mL/min flow followed by a linear gradient to 95% B over 5.5 min and 0.4 mL/min flow leading to thymine, BVU, SRV, and BRV elution at 0.95, 2.0, 2.15, and 2.4 min, respectively. The internal standards caffeine and sulfamethoxazole elute at 1.9 and 2.1 min, respectively. The qTOF is operated in positive scanning mode (50-1000 m/z) and the following source parameters: VCap is 3500 V; nozzle voltage is 2000 V; gas temp is 225 C; drying gas 13 L/min; nebulizer is 20 psig; sheath gas temp is 225 C; and sheath gas flow is 12 L/min. Online mass calibration is performed using a second ionization source and a constant flow (5 μL/min) of reference solution (121.0509 and 922.0098 m/z). Compounds are identified based on the retention time of chemical standards and their accurate mass (tolerance 20 ppm).

[4] = test system: human gut microbial communities; test: Bacterial conversion assay with fecal microbial communities; type: in vitro ADME; conditions: human unfractionated fecal microbial communities
Description: (§1) All handling of human materials is conducted with the permission of the Yale Human Investigation Committee. Samples are collected and stored as described in A. L. Goodman et al., Extensive personal human gut microbiota culture collections characterized and manipulated in gnotobiotic mice, Proceedings of the National Academy of Sciences,108, 6252-6257 (2011), the content of which is incorporated by reference herein. In brief, a single fecal sample is collected from each healthy human donor, stored on ice for less than 12 hours prior to transport into an anaerobic chamber (Coy Laboratory Products) and homogenization in pre-reduced GMM containing 20% glycerol. Aliquots of 0.5 mL volume are anaerobically prepared in 1.8 mL glass E-Z vials (Wheaton Industries) and stored at −80° C. Murine fecal samples are collected from individually caged animals (2 males and 2 females) and are stored at −80° C. without further processing.
(§2) Frozen stocks are re-suspended in 4 mL pre-reduced GMM and incubated anaerobically at 37° C. for 14 h. Cultures are diluted (1:10) in 20% pre-reduced GMM containing BRV or SRV at 100 μM and further incubated at 25° C. anaerobically. […] Substrates and reaction product are extracted and quantified by LC-MS as described below.

[5] = test system: murine gut microbial communities; test: as above; type: in vitro ADME; conditions: murine unfractionated fecal microbial communities
Description: as §1, §2

SMILES: O=c1[nH]c(=O)n([C@H]2C[C@H](O)[C@@H](CO)O2)cc1/C=C/Br [BRV, Brivudine]
- conversion of BRV to BVU ([1]; human S9 liver fractions): stoichiometric conversion to BVU
- conversion of BRV to BVU ([1]; murine S9 liver fractions): stoichiometric conversion to BVU
- capacity to convert BRV to BVU [2]: highest metabolic activity
- endogenous DPD substrates (thymine) in the liver ([3]; BRV-treated CV mice): accumulate endogenous DPD substrates
- drug concentrations along the length of the gastrointestinal tract ([3]; CV mice, oral BRV): progressively reduced
- BRV levels over time in the duodenum ([3]; CV versus GF mice, oral BRV): similar
- serum BRV ([3]; CV versus GF mice, oral BRV): without a corresponding decrease
- BRV levels further along the gastrointestinal tract and in feces ([3]; GF mice versus CV, oral BRV): significantly higher
- conversion of BRV to BVU [4]: stoichiometric conversion to BVU
- conversion of BRV to BVU [5]: stoichiometric conversion to BVU
